“And” between values parts separate entries of the source, which are not always exact repeats. Identical values can stand only once. Toxic doses and inconclusive results are not listed.
Tested on: BDF1 mice, B16 melanoma ip, median survival T/C
Assay: NCI In Vivo Anticancer Drug Screen. Data for tumor model B16 Melanoma (intraperitoneal) in B6D2F1 (BDF1) mice
Details: endpoint: median survival time, higher = longer survival
Summary of the method: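 Antitumor activity is assessed in mice bearing a transplanted tumor, with survival or tumor size compared against vehicle-dosed controls and expressed as T/C.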

[1] = dose: 100.0 mg/kg/injection, schedule: Q01DX009 (ip), vehicle: saline with Tween-80
[2] = dose: 200.0 mg/kg/injection, schedule: Q01DX009 (ip), vehicle: saline with Tween-80
[3] = dose: 400.0 mg/kg/injection, schedule: Q01DX009 (ip), vehicle: saline with Tween-80
[4] = dose: 100.0 mg/kg/injection, schedule: Q04DX003 (ip), vehicle: saline with Tween-80
[5] = dose: 200.0 mg/kg/injection, schedule: Q04DX003 (ip), vehicle: saline with Tween-80
[6] = dose: 50.0 mg/kg/injection, schedule: Q01DX009 (ip), vehicle: saline with Tween-80

Question: How did the T/C (dose: 37.5 mg/kg/injection, schedule: Q01DX009 (ip), vehicle: other) turn out when `CC(C)(c1ccccc1)c1ccc(O)cc1` was run?
Answer: 97 % of control

Question: And the T/C (dose: 75.0 mg/kg/injection, schedule: Q01DX009 (ip), vehicle: other)?
Answer: 100 % of control

Question: What about the T/C (dose: 150.0 mg/kg/injection, schedule: Q01DX009 (ip), vehicle: other) of the same molecule?
Answer: 94 % of control

Question: What about the T/C (dose: 150.0 mg/kg/injection, schedule: Q04DX003 (ip), vehicle: saline + alcohol) of the same molecule?
Answer: 90 % of control

Question: What about the T/C (dose: 300.0 mg/kg/injection, schedule: Q01DX009 (ip), vehicle: other) of the same molecule?
Answer: 94 % of control

Question: What about the T/C (dose: 300.0 mg/kg/injection, schedule: Q04DX003 (ip), vehicle: saline + alcohol) of the same molecule?
Answer: 104 % of control

Question: And the T/C (dose: 600.0 mg/kg/injection, schedule: Q04DX003 (ip), vehicle: saline + alcohol)?
Answer: 95 % of control

Question: Which T/C (dose: 0.75 mg/kg/injection, schedule: Q01DX009 (ip), vehicle: saline) does the source give for `O=C1NC2(CCCCC2)C(=O)N1CCN(CCCl)CCCl` here?
Answer: 105 % of control and 107 % of control

Question: What about the T/C (dose: 0.78 mg/kg/injection, schedule: Q01DX009 (ip), vehicle: saline) of the same molecule?
Answer: 95 % of control and 109 % of control and 263 % of control

Question: What about the T/C (dose: 3.0 mg/kg/injection, schedule: Q01DX009 (ip), vehicle: saline) of the same molecule?
Answer: 107 % of control

Question: And the T/C (dose: 6.0 mg/kg/injection, schedule: Q01DX009 (ip), vehicle: saline with Tween-80)?
Answer: 168 % of control and 191 % of control

Question: What about the T/C (dose: 6.25 mg/kg/injection, schedule: Q01DX009 (ip), vehicle: saline) of the same molecule?
Answer: 152 % of control and 176 % of control

Question: How did the T/C (dose: 25.0 mg/kg/injection, schedule: Q01DX009 (ip), vehicle: Klucel (hydroxypropylcellulose) (HPC)) turn out when `Cc1ccc(NC(=O)Nc2cccc(Cl)c2C)cc1C` was run?
Answer: 98 % of control

Question: And the T/C (dose: 50.0 mg/kg/injection, schedule: Q01DX009 (ip), vehicle: Klucel (hydroxypropylcellulose) (HPC))?
Answer: 86 % of control

Question: What about the T/C (dose: 100.0 mg/kg/injection, schedule: Q01DX009 (ip), vehicle: Klucel (hydroxypropylcellulose) (HPC)) of the same molecule?
Answer: 92 % of control

Question: With `Cc1c(CNc2ccc(C(=O)NC(CC(=O)O)C(=O)O)cc2)ccc2nc(N)nc(N)c12` (configuration not stated) as the molecule, how does the T/C (dose: 0.02 mg/kg/injection, schedule: Q01DX009 (ip), vehicle: saline with Tween-80) read?
Answer: 94 % of control

Question: And the T/C (dose: 0.04 mg/kg/injection, schedule: Q01DX009 (ip), vehicle: saline with Tween-80)?
Answer: 94 % of control

Question: What about the T/C (dose: 0.04 mg/kg/injection, schedule: Q01DX009 (ip), vehicle: saline) of the same molecule?
Answer: 103 % of control

Question: And the T/C (dose: 0.09 mg/kg/injection, schedule: Q01DX009 (ip), vehicle: saline with Tween-80)?
Answer: 86 % of control

Question: And the T/C (dose: 0.09 mg/kg/injection, schedule: Q01DX009 (ip), vehicle: saline)?
Answer: 100 % of control

Question: And the T/C (dose: 0.18 mg/kg/injection, schedule: Q01DX009 (ip), vehicle: saline with Tween-80)?
Answer: 97 % of control

Question: What about the T/C (dose: 0.19 mg/kg/injection, schedule: Q01DX009 (ip), vehicle: saline) of the same molecule?
Answer: 111 % of control

Question: And the T/C (dose: 0.78 mg/kg/injection, schedule: Q01DX009 (ip), vehicle: saline with Tween-80)?
Answer: 118 % of control

Question: `CCOc1ccc(NC(=O)C(C)O)cc1` (configuration not stated) was tested. Which T/C [1] did it give?
Answer: 97 % of control

Question: And the T/C [2]?
Answer: 97 % of control

Question: What about the T/C [3] of the same molecule?
Answer: 91 % of control

Question: Which results are given for `O=C(O)C1(Cl)CC2C=CC1C2` (configuration not stated)?
Answer: T/C (dose: 50.0 mg/kg/injection, schedule: Q04DX003 (ip), vehicle: saline with Tween-80): 105 % of control; T/C [4]: 97 % of control; T/C [5]: 88 % of control

Question: What does the source list for `COC1(OC)C2C=CC1CC2`?
Answer: T/C [6]: 97 % of control; T/C [1]: 97 % of control; T/C [2]: 90 % of control; T/C [3]: 96 % of control

Question: Which results are given for `COC(OC(CO)C(O)S(=O)(=O)O)C(O)S(=O)(=O)O` (configuration not stated)?
Answer: T/C (dose: 12.5 mg/kg/injection, schedule: Q01DX009 (ip), vehicle: saline): 104 % of control; T/C (dose: 25.0 mg/kg/injection, schedule: Q01DX009 (ip), vehicle: saline): 107 % of control; T/C (dose: 50.0 mg/kg/injection, schedule: Q01DX009 (ip), vehicle: saline): 111 % of control; T/C (dose: 100.0 mg/kg/injection, schedule: Q01DX009 (ip), vehicle: saline): 119 % of control

Question: Which results are given for `[Cl][Mn][Cl]`?
Answer: T/C (dose: 6.25 mg/kg/injection, schedule: Q01DX009 (ip), vehicle: water): 100 % of control; T/C (dose: 12.5 mg/kg/injection, schedule: Q01DX009 (ip), vehicle: water): 98 % of control; T/C (dose: 17.8 mg/kg/injection, schedule: Q01DX009 (ip), vehicle: saline): 104 % of control; T/C (dose: 17.8 mg/kg/injection, schedule: Q01DX009 (sc), vehicle: water): 101 % of control; T/C (dose: 25.0 mg/kg/injection, schedule: Q01DX009 (ip), vehicle: water): 109 % of control; T/C (dose: 26.7 mg/kg/injection, schedule: Q01DX009 (ip), vehicle: saline): 110 % of control and 114 % of control; T/C (dose: 26.7 mg/kg/injection, schedule: Q01DX009 (sc), vehicle: water): 99 % of control; T/C (dose: 40.0 mg/kg/injection, schedule: Q01DX009 (ip), vehicle: saline): 107 % of control and 117 % of control; T/C (dose: 40.0 mg/kg/injection, schedule: Q01DX009 (sc), vehicle: water): 104 % of control; T/C (dose: 50.0 mg/kg/injection, schedule: Q01DX009 (ip), vehicle: water): 114 % of control; T/C (dose: 60.0 mg/kg/injection, schedule: Q01DX009 (ip), vehicle: saline): 106 % of control and 119 % of control; T/C (dose: 60.0 mg/kg/injection, schedule: Q01DX009 (ip), vehicle: water): 163 % of control; T/C (dose: 60.0 mg/kg/injection, schedule: Q01DX009 (sc), vehicle: water): 104 % of control; T/C (dose: 90.0 mg/kg/injection, schedule: Q01DX009 (sc), vehicle: water): 104 % of control

Question: Which T/C (dose: 0.13 mg/kg/injection, schedule: Q01DX009 (ip), vehicle: Klucel (hydroxypropylcellulose) (HPC)) does the source give for `CCCC(=O)OC1C=C2N3C(=O)C4CC56C(=CC(OC(C)=O)C7OC75)N4C(=O)C3CC26C2OC12` (configuration not stated) here?
Answer: 90 % of control

Question: And the T/C (dose: 0.25 mg/kg/injection, schedule: Q01DX009 (ip), vehicle: Klucel (hydroxypropylcellulose) (HPC))?
Answer: 101 % of control

Question: What about the T/C (dose: 0.5 mg/kg/injection, schedule: Q01DX009 (ip), vehicle: Klucel (hydroxypropylcellulose) (HPC)) of the same molecule?
Answer: 90 % of control

Question: What does the source list for `CC1=CC(C)(C)Nc2ccc(CSc3ccccc3)cc21`?
Answer: T/C (dose: 12.5 mg/kg/injection, schedule: Q01DX009 (ip), vehicle: saline + Tween-80 + alcohol): 112 % of control; T/C (dose: 25.0 mg/kg/injection, schedule: Q01DX009 (ip), vehicle: saline + Tween-80 + alcohol): 117 % of control; T/C (dose: 50.0 mg/kg/injection, schedule: Q01DX009 (ip), vehicle: saline + Tween-80 + alcohol): 111 % of control; T/C (dose: 100.0 mg/kg/injection, schedule: Q01DX009 (ip), vehicle: saline + Tween-80 + alcohol): 96 % of control

Question: For `NC(N)=Nc1nc2ccccc2s1`, which T/C (dose: 25.0 mg/kg/injection, schedule: Q04DX003 (ip), vehicle: Klucel (hydroxypropylcellulose) (HPC)) is on record?
Answer: 105 % of control

Question: What about the T/C (dose: 50.0 mg/kg/injection, schedule: Q04DX003 (ip), vehicle: Klucel (hydroxypropylcellulose) (HPC)) of the same molecule?
Answer: 97 % of control

Question: What about the T/C (dose: 100.0 mg/kg/injection, schedule: Q04DX003 (ip), vehicle: Klucel (hydroxypropylcellulose) (HPC)) of the same molecule?
Answer: 97 % of control

Question: How did the T/C (dose: 6.25 mg/kg/injection, schedule: Q01DX009 (ip), vehicle: saline with Tween-80) turn out when `CS(=O)(=O)OCCN(CCOS(C)(=O)=O)c1ccc(C=O)cc1` was run?
Answer: 170 % of control

Question: What does the source list for `CC1(c2ccccc2)CCc2ccccc21` (configuration not stated)?
Answer: T/C (dose: 25.0 mg/kg/injection, schedule: Q01DX009 (ip), vehicle: saline with Tween-80): 103 % of control; T/C [6]: 89 % of control; T/C [1]: 90 % of control

Question: `NC(=O)CNC1=C(N2CC2)C(=O)C(NCC(N)=O)=C(N2CC2)C1=O` was tested. Which T/C (dose: 0.5 mg/kg/injection, schedule: Q01DX009 (ip), vehicle: saline) did it give?
Answer: 96 % of control

Question: And the T/C (dose: 1.0 mg/kg/injection, schedule: Q01DX009 (ip), vehicle: saline)?
Answer: 115 % of control

Question: What about the T/C (dose: 4.0 mg/kg/injection, schedule: Q01DX009 (ip), vehicle: saline) of the same molecule?
Answer: 124 % of control

Question: For `C=CCn1c(=S)[nH]c2ccccc2c1=O`, which T/C [6] is on record?
Answer: 96 % of control

Question: And the T/C [1]?
Answer: 96 % of control

Question: And the T/C [4]?
Answer: 105 % of control

Question: And the T/C [2]?
Answer: 93 % of control

Question: And the T/C [5]?
Answer: 94 % of control

Question: What about the T/C (dose: 400.0 mg/kg/injection, schedule: Q04DX003 (ip), vehicle: saline with Tween-80) of the same molecule?
Answer: 92 % of control

Question: `C[n+]1c2ccccc2c(Nc2ccc(NS(=O)(=O)CCCCN=C(N)N)cc2)c2ccc(N)cc21` was tested. Which T/C (dose: 0.75 mg/kg/injection, schedule: Q01DX009 (ip), vehicle: water) did it give?
Answer: 114 % of control

Question: And the T/C (dose: 3.0 mg/kg/injection, schedule: Q01DX009 (ip), vehicle: Klucel (hydroxypropylcellulose) (HPC))?
Answer: 170 % of control

Question: And the T/C (dose: 3.0 mg/kg/injection, schedule: Q01DX009 (ip), vehicle: water)?
Answer: 171 % of control

Question: What about the T/C (dose: 6.0 mg/kg/injection, schedule: Q01DX009 (ip), vehicle: Klucel (hydroxypropylcellulose) (HPC)) of the same molecule?
Answer: 159 % of control

Question: And the T/C (dose: 6.0 mg/kg/injection, schedule: Q01DX009 (ip), vehicle: water)?
Answer: 168 % of control and 176 % of control

Question: And the T/C (dose: 12.0 mg/kg/injection, schedule: Q01DX009 (ip), vehicle: water)?
Answer: 184 % of control and 188 % of control

Question: And the T/C (dose: 12.5 mg/kg/injection, schedule: Q04DX003 (ip), vehicle: water)?
Answer: 151 % of control

Question: What about the T/C (dose: 25.0 mg/kg/injection, schedule: Q04DX003 (ip), vehicle: water) of the same molecule?
Answer: 171 % of control
